One data set relates to Leishmania (L. major). Description: Leishmania protozoa proliferation inhibition assay. It is filed as cell-based. The following applies: for OD level (number of viable Leishmania protozoa): Table 2, 48 hours at 27° C., absorbance 450 nm minus 630 nm.

For the molecule `CCCC[n+]1ccccc1/C=c1\s/c(=C2/Sc3ccccc3N2C)c(=O)n1CC.[I-]` [I (c), 1-butyl-2-[3-ethyl-{5-(3-methyl-2(3H)-benzothiazolylidene)-4-oxo-2-thiazolidinylidene}methyl]pyridinium=iodide], the melting point was 237 to 242 °C. Besides, the “OD level (number of viable Leishmania protozoa)” value (“OD level” below) in the data set on Leishmania (L. major) (sample concentration 0.0001 mg/ml) is 0.365. Moreover, the “OD level” value with Leishmania (L. major) (sample concentration 0.0007 mg/ml) is 0.360. Moreover, the “OD level” value in the data set on Leishmania (L. major) (sample concentration 0.002 mg/ml) is reported as 0.394. In the data set with Leishmania (L. major) (sample concentration 0.008 mg/ml), the “OD level” value is given as 0.407. In addition, in the data set on Leishmania (L. major) (sample concentration 0.025 mg/ml), the “OD level” value came out at 0.317. Also, the “OD level” value with Leishmania (L. major) (sample concentration 0.084 mg/ml) is 0.117. Also, the “OD level” value with Leishmania (L. major) (sample concentration 0.279 mg/ml) is given as 0.042. Further, the “OD level” value with Leishmania (L. major) (sample concentration 0.93 mg/ml) is recorded as 0.029. In addition, the “OD level” value in the data set on Leishmania (L. major) (sample concentration 3.1 mg/ml) is given as 0.031. For the same molecule, the “OD level” value in the data set on Leishmania (L. major) (sample concentration 2E−04 mg/ml) is recorded as 0.350. For the same molecule, the IC50 with Leishmania (L. major) (calculated from the graphs of FIGS. 1 to 4 (concentration vs number of viable leishmania protozoa), read-out: Concentration inhibiting 50% leishmania proliferation) is 1000 nM.

A word on the melting point: it is the temperature of the solid-liquid transition.

The record behind these values is patent US20060252800A1, “Anti-leishmania agent” (priority 2003, published 2006).
